Data on six compounds can be found in patent publication US20250206761A1, “HALOINDOLE MACROCYCLIC COMPOUNDS FOR THE TREATMENT OF CANCER” (Hoffmann-La Roche Inc., priority 2022, published 2025).

For assay [1], the system named is SW620 (ATCC-CCL-227). The experiment in a line: Cell viability assay, G12V (SW620). Format: cell-based, human. To be noted: Homo sapiens, SW-620; KRAS cell viability, SW620, 72 hrs, Cell Counting Kit-8. The essentials:
(§1)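 72-hr compound treatment, 0.5% DMSO final; NCI-H358 seeded 5,000 cells/well, AGS and SW620 2,000 cells/well. Endpoint: CCK-8, 2-hr development, OD450 minus OD650.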

In assay [2] the test system is phosphorylation of ERK, KRAS G12V in SW620. The experiment in a line: pERK inhibition assay, KRAS G12V. The settings on record: Homo sapiens, SW-620, SW620, 4 hours. Format: cell-based, human. The essentials:
(§2)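 4 h compound treatment (0.5% DMSO final) of overnight-plated cells; formaldehyde fix, cold MeOH permeabilization, BSA block. Anti-pERK primary overnight at 4 °C, HRP anti-rabbit secondary, TMB readout at OD450. IC50 via 4-parameter sigmoidal model.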

For assay [3], the target named is KRAS G12D binding to BRAF (Homo sapiens (Human), UniProt P01116+P62937, G12D). The experiment in a line: KRAS-BRAF with CYPA (500 nM) interaction assay (TR-FRET), G12D. In kind it is biochemical.
Sequence of KRAS G12D binding to BRAF (P01116-2 other isoform, or with tags, fused parts or gaps G12D): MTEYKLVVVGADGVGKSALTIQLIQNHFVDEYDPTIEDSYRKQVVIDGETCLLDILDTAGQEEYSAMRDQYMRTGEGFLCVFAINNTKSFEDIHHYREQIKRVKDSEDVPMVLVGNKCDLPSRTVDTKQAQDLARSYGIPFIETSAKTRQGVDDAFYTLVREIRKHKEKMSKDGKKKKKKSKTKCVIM
Sequence of KRAS G12D binding to BRAF (P62937 whole entry): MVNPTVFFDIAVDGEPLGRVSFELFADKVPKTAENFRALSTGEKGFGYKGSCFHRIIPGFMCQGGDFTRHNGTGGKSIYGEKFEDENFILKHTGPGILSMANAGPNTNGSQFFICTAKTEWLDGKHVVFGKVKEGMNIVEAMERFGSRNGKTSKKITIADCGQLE
In assay [4] the test system is AGS (ATCC-CRL-1739) cells. The experiment in a line: Cell viability assay, G12D (AGS). Format: cell-based, human. The settings on record: Homo sapiens, KRAS cell viability, 72 hrs, Cell Counting Kit-8. The gist of the method:
as §1
Background: Formazan colour is commonly taken as a measure of viable cells.

In assay [5] the target is KRAS G12V binding to BRAF (Homo sapiens (Human), UniProt P01116+P62937, G12V). The experiment in a line: KRAS-BRAF with CYPA (500 nM) interaction assay (TR-FRET), G12V. In kind it is biochemical. The essentials:
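A TR-FRET assay measured how compound, in the presence of CYPA, disrupts binding of GMPPNP-loaded 6His-KRAS G12V to BRAF. The buffer contained 25 mM HEPES PH=7.4, 0.002% Tween20, 0.1% BSA, 100 mM NaCl, 5 mM MgCl2 and 10 μM GMPPNP. Compounds ran as a 16-point 3-fold dilution series from 10 μM for 3 hours.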
A general note: Time-resolved FRET reads energy transfer from a long-lived donor to a nearby acceptor.

Assay [6] deals with KRAS G12C-BRAF complex (Homo sapiens (Human), UniProt P01116+P62937, G12C). The experiment in a line: KRAS-BRAF with CYPA (500 nM) interaction assay (TR-FRET), G12C. Format: biochemical.
Sequence of KRAS G12C-BRAF complex (P01116-2 other isoform, or with tags, fused parts or gaps G12C): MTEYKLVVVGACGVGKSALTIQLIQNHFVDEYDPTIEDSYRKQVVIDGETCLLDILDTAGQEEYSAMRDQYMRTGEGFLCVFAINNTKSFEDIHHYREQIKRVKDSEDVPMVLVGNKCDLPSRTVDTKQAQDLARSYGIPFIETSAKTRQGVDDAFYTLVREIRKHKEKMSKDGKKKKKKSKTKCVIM
Sequence of KRAS G12C-BRAF complex (P62937 whole entry): as the sequence (P62937 whole entry) above
For assay [7], the system named is phosphorylation of ERK, KRAS G12C in NCJ-H358 cells. The experiment in a line: pERK inhibition assay, KRAS G12C. Format: cell-based, human. The settings on record: Homo sapiens, 4 hours. The essentials: as §2
For assay [8], the system named is phosphorylation of ERK, KRAS G12D in AGS cells. The experiment in a line: pERK inhibition assay, KRAS G12D. In kind it is cell-based, human. The settings on record: Homo sapiens, 4 hours. The protocol: This assay is to measure the ability of test compounds in inhibiting the phosphorylation of ERK, the downstream signaling of KRAS G12C in NCJ-H358 cells, KRAS G12D in AGS cells, and KRAS G12V in SW620. NCJ-H358 (ATCC-CRL5807) cells, AGS (ATCC-CRL-1739) cells, SW620 (ATCC-CCL-227) cells were all grown and maintained using RPMI-1640 medium (Thermo Fisher Scientific) with 10% fetal bovine serum and 1% penicillin/streptomycin. On the day prior to compound addition, cells were plated in tissue culture-treated 96 well plates (Corning-3699) at a density of 30,000 cell/well, 20,000 cell/well, 30,000 cell/well for NCJ-H358, AGS and SW620 respectively, and allowed for attachment overnight. Diluted compounds were then added in a final concentration of 0.5% DMSO. After 4 hours of incubation, the medium was removed, 100 μL of 4% formaldehyde was added, and the assay plates were incubated at room temperature for 20 minutes. The plates were then washed once with phosphate buffered saline (PBS), and permeabilized with 100 μL of chilled methanol for 10 minutes. Non-specific antibody binding to the plates was blocked using 50 μL 1×BSA blocking buffer (Thermo-37520, 10-fold dilution by Phosphate-Buffered Saline Tween (PBST) for at least 1 hour at room temperature.
The amount of phosphor-ERK was determined using an antibody specific for phosphorylated form of ERK. Primary antibody (pERK, CST-4370, Cell Signaling Technology) was diluted 1:300 in blocking buffer, with 50 μL aliquoted to each well, and incubated overnight at 4′° C. Cells was washed five times for 5 minutes with PBST. Secondary antibody ([…] anti-rabbit IgG, CST-7074, Cell Signaling Technology) was diluted 1:1000 in blocking buffer, and 50 μL was added to each well and incubated 1-2 hrs at room temperature. Cells was washed 5 times for 5 minutes with PBST, 100 μL TMB ELISA substrate (abcam-ab171523) were added and gently shake for 20 minutes. 50 μL stop solution (abcam-ab171529) were added, and then read the signal (OD450) by EnVision.
IC50 was determined by fitting a 4-parameter sigmoidal concentration response model.

The subject of assay [9] is NCI-H358 (ATCC-CRL5807) cells. The experiment in a line: Cell viability assay, G12C (NCI-H358). In kind it is cell-based, human. The settings on record: Homo sapiens; KRAS cell viability, NCI-H358, 72 hrs, Cell Counting Kit-8. The essentials:
as §1

Sequence of KRAS G12V binding to BRAF (P01116-2 other isoform, or with tags, fused parts or gaps G12V): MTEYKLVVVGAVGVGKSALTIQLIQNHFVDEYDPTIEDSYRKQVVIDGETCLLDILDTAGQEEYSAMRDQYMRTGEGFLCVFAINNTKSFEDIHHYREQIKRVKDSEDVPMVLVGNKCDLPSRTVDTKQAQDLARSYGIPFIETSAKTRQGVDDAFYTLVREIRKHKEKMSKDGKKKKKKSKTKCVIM
Sequence of KRAS G12V binding to BRAF (P62937 whole entry): as the sequence (P62937 whole entry) above

Turning to `CO[C@@H](C)c1ncc(N2CCOCC2)cc1-c1c2c3cc(c(F)cc3n1CC(F)(F)F)-c1csc(n1)C[C@H](NC(=O)[C@H](C(C)C)N(C)C(=O)[C@H]1CCN(C(=O)[C@H](F)Cl)C1)C(=O)N1CCC[C@H](N1)C(=O)OCC(C)(C)C2` (atropisomer, axis not shown; (M)) [Example 24, (3S)-1-[(2R)-2-chloro-2-fluoro-acetyl]-N-[(1S)-1-[[(7S,13S)-24-fluoro-(20M)-20-[2-[(1S)-1-methoxyethyl]-5-morpholino-3-pyridyl]-17,17-dimethyl-8,14-dioxo-21-(2,2,2-trifluoroethyl)-15-oxa-4-thia-9,21,27,28-tetrazapentacyclo[17.5.2.1^2,5.1^9,13.0^22,26]octacosa-1(25),2,5(28),19,22(26),23-hexaen-7-yl]carbamoyl]-2-methyl-propyl]-N-methyl-pyrrolidine-3-carboxamide], the IC50 (usually the concentration that gives 50% inhibition) is 0.034 µM in [1]; 0.018 µM in [2]; over 10 µM in assay [3]; 0.283 µM in assay [4]; 1.39 µM in assay [5]; 0.053 µM in assay [6]. The IC50 in assay [7] came to 0.005 µM; in assay [8] it was 0.012 µM.

Take `CO[C@@H](C)c1ncc(N2CCN(C)CC2)cc1-c1c2c3c(F)c(ccc3n1CC(F)(F)F)-c1csc(n1)C[C@H](NC(=O)[C@H](C(C)C)N(C)C(=O)[C@H]1CCN(C(=O)[C@H](F)Cl)C1)C(=O)N1CCC[C@H](N1)C(=O)OCC(C)(C)C2` (atropisomer, axis not shown; (M)) [Example 1, (3S)-1-[(2R)-2-chloro-2-fluoro-acetyl]-N-[(1S)-1-[[(7S,13S)-25-fluoro-(20M)-20-[2-[(1S)-1-methoxyethyl]-5-(4-methylpiperazin-1-yl)-3-pyridyl]-17,17-dimethyl-8,14-dioxo-21-(2,2,2-trifluoroethyl)-15-oxa-4-thia-9,21,27,28-tetrazapentacyclo[17.5.2.1^2,5.1^9,13.0^22,26]octacosa-1(25),2,5(28),19,22(26),23-hexaen-7-yl]carbamoyl]-2-methyl-propyl]-N-methyl-pyrrolidine-3-carboxamide]: the IC50 in [1] came out at 0.092 µM; in assay [2], 0.055 µM; in assay [4] it was 0.39 µM; in assay [7] it was 0.007 µM; in assay [9], 0.005 µM; in [8], 0.137 µM.

Take `CO[C@@H](C)c1ncc(N2CCN(C)CC2)cc1-c1c2c3c(F)c(ccc3n1CC(F)(F)F)-c1cc(O)cc(c1)C[C@H](NC(=O)[C@H](C(C)C)N(C)C(=O)[C@H]1CCN(C(=O)[C@H](F)Cl)C1)C(=O)N1CCC[C@H](N1)C(=O)OCC(C)(C)C2` (atropisomer, axis not shown; (M)) [Example 27, (3S)-1-[(2R)-2-chloro-2-fluoro-acetyl]-N-[(1S)-1-[[(8S,14S)-26-fluoro-4-hydroxy-(21M)-21-[2-[(1S)-1-methoxyethyl]-5-(4-methylpiperazin-1-yl)-3-pyridyl]-18,18-dimethyl-9,15-dioxo-22-(2,2,2-trifluoroethyl)-16-oxa-10,22,28-triazapentacyclo[18.5.2.1^2,6.1^10,14.0^23,27]nonacosa-1(26),2,4,6(29),20,23(27),24-heptaen-8-yl]carbamoyl]-2-methyl-propyl]-N-methyl-pyrrolidine-3-carboxamide]: the IC50 turned out to be 0.031 µM in [1]; 0.01 µM in assay [2]; 0.007 µM in assay [3]; 0.037 µM in assay [4]; 0.003 µM in assay [5]; 0.002 µM in [6]. For the same compound, the IC50 turned out to be 0.003 µM in assay [7] and 0.011 µM in assay [8].

As for `CO[C@@H](C)c1ncc(N2CCN(C)CC2)cc1-c1c2c3cc(c(C)cc3n1CC(F)(F)F)-c1csc(n1)C[C@H](NC(=O)[C@H](C(C)C)N(C)C(=O)[C@H]1CCN(C(=O)[C@H](F)Cl)C1)C(=O)N1CCC[C@H](N1)C(=O)OCC(C)(C)C2` (atropisomer, axis not shown; (M)) [Example 3, (3S)-1-[(2R)-2-chloro-2-fluoro-acetyl]-N-[(1S)-1-[[(7S,13S)-(20M)-20-[2-[(1S)-1-methoxyethyl]-5-(4-methylpiperazin-1-yl)-3-pyridyl]-17,17,24-trimethyl-8,14-dioxo-21-(2,2,2-trifluoroethyl)-15-oxa-4-thia-9,21,27,28-tetrazapentacyclo[17.5.2.1^2,5.1^9,13.0^22,26]octacosa-1(25),2,5(28),19,22(26),23-hexaen-7-yl]carbamoyl]-2-methyl-propyl]-N-methyl-pyrrolidine-3-carboxamide], the IC50 in [2] stood at 0.138 µM; in [7], 0.032 µM; in assay [8] it was 0.114 µM.

Take `CCn1c(-c2cc(N3CCN(C)CC3)cnc2[C@H](C)OC)c2c3cc(c(F)cc31)-c1csc(n1)C[C@H](NC(=O)[C@H](C(C)C)N(C)C(=O)C1(F)CCN(C(=O)[C@H](F)Cl)CC1)C(=O)N1CCC[C@H](N1)C(=O)OCC(C)(C)C2` (atropisomer, axis not shown; (M)) [Example 34, 1-[(2R)-2-chloro-2-fluoro-acetyl]-N-[(1S)-1-[[(7S,13S)-21-ethyl-24-fluoro-(20M)-20-[2-[(1S)-1-methoxyethyl]-5-(4-methylpiperazin-1-yl)-3-pyridyl]-17,17-dimethyl-8,14-dioxo-15-oxa-4-thia-9,21,27,28-tetrazapentacyclo[17.5.2.1^2,5.1^9,13.0^22,26]octacosa-1(25),2,5(28),19,22(26),23-hexaen-7-yl]carbamoyl]-2-methyl-propyl]-4-fluoro-N-methyl-piperidine-4-carboxamide]: the IC50 in [1] turned out to be 0.04 µM; in assay [2] it was 0.012 µM; in assay [3], 0.909 µM; in assay [4], 0.043 µM; in [5], 0.724 µM; in assay [6], 0.047 µM. Further, the IC50 was 0.002 µM in assay [7] and under 0.001 µM in [9].

For `CO[C@@H](C)c1ncc(N2CCN(CC(F)(F)F)CC2)cc1-c1c2c3cc(c(F)cc3n1CC(F)(F)F)-c1csc(n1)C[C@H](NC(=O)[C@H](C(C)C)N1CCCC3(CCN(C(=O)[C@H](F)Cl)CC3)C1=O)C(=O)N1CCC[C@H](N1)C(=O)OCC(C)(C)C2` (atropisomer, axis not shown; (M)) [Example 42, (2S)-2-[9-[(2R)-2-chloro-2-fluoro-acetyl]-1-oxo-2,9-diazaspiro[5.5]undecan-2-yl]-N-[(7S,13S)-24-fluoro-(20M)-20-[2-[(1S)-1-methoxyethyl]-5-[4-(2,2,2-trifluoroethyl)piperazin-1-yl]-3-pyridyl]-17,17-dimethyl-8,14-dioxo-21-(2,2,2-trifluoroethyl)-15-oxa-4-thia-9,21,27,28-tetrazapentacyclo[17.5.2.1^2,5.1^9,13.0^22,26]octacosa-1(25),2,5(28),19,22(26),23-hexaen-7-yl]-3-methyl-butanamide], the 50% inhibitory concentration (IC50) amounted to 0.082 µM in assay [1]; 0.024 µM in [2]; 3.97 µM in [3]; 0.044 µM in assay [4]; 7.86 µM in assay [5]; 0.073 µM in assay [6]. Besides, the IC50 in [7] is 0.003 µM; in assay [9], under 0.001 µM.
